Laboratory results taken from PubChem BioAssay AID256 (DTP/NCI, 2004).
Where “and” joins values, the source holds several entries; their conditions need not be identical. Equal entries are not always repeated. Inconclusive results and toxic doses are left out.

Tested on: CD2F1 mice, L1210 leukemia ip, survival T/C
Test: NCI In Vivo Anticancer Drug Screen. Data for tumor model L1210 Leukemia (intraperitoneal) in CD2F1 (CDF1) mice
Details: endpoint: mean survival time, higher = longer survival
How it was run: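 In this screen, transplantable tumors were grown in mice given either the compound or its vehicle. Results were expressed as the treated measurement relative to the control measurement.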

[1] = dose: 100.0 mg/kg/injection, schedule: Q04DX002 (ip), vehicle: saline with Tween-80
[2] = dose: 200.0 mg/kg/injection, schedule: Q04DX002 (ip), vehicle: saline with Tween-80
[3] = dose: 400.0 mg/kg/injection, schedule: Q04DX002 (ip), vehicle: saline with Tween-80
[4] = dose: 100.0 mg/kg/injection, schedule: Q04DX003 (ip), vehicle: saline with Tween-80
[5] = dose: 12.5 mg/kg/injection, schedule: Q01DX009 (ip), vehicle: saline with Tween-80
[6] = dose: 25.0 mg/kg/injection, schedule: Q01DX009 (ip), vehicle: saline with Tween-80
[7] = dose: 50.0 mg/kg/injection, schedule: Q01DX009 (ip), vehicle: saline with Tween-80
[8] = dose: 100.0 mg/kg/injection, schedule: Q01DX009 (ip), vehicle: saline with Tween-80
[9] = dose: 200.0 mg/kg/injection, schedule: Q01DX009 (ip), vehicle: saline with Tween-80
[10] = dose: 200.0 mg/kg/injection, schedule: Q04DX003 (ip), vehicle: saline with Tween-80
[11] = dose: 400.0 mg/kg/injection, schedule: Q01DX009 (ip), vehicle: saline with Tween-80
[12] = dose: 400.0 mg/kg/injection, schedule: Q04DX003 (ip), vehicle: saline with Tween-80
[13] = dose: 100.0 mg/kg/injection, schedule: Q01DX001 (ip), vehicle: saline with Tween-80
[14] = dose: 200.0 mg/kg/injection, schedule: Q01DX001 (ip), vehicle: saline with Tween-80
[15] = dose: 25.0 mg/kg/injection, schedule: Q04DX003 (ip), vehicle: saline with Tween-80
[16] = dose: 50.0 mg/kg/injection, schedule: Q04DX003 (ip), vehicle: saline with Tween-80

CC1(CC(=O)O)NC(=O)NC1=O (centres undefined)
T/C (dose: 100.0 mg/kg/injection, schedule: Q01DX001 (ip), vehicle: saline): 102 % of control
T/C [1]: 96 % of control
T/C (dose: 200.0 mg/kg/injection, schedule: Q01DX001 (ip), vehicle: saline): 97 % of control
T/C [2]: 101 % of control
T/C (dose: 400.0 mg/kg/injection, schedule: Q01DX001 (ip), vehicle: saline): 100 % of control
T/C [3]: 96 % of control

O=c1c2ccccc2nnn1OCc1ccccc1
T/C (dose: 12.5 mg/kg/injection, schedule: Q01DX001 (ip), vehicle: distilled water + Tween-80): 104 % of control
T/C (dose: 25.0 mg/kg/injection, schedule: Q01DX001 (ip), vehicle: distilled water + Tween-80): 90 % of control
T/C (dose: 50.0 mg/kg/injection, schedule: Q01DX001 (ip), vehicle: distilled water + Tween-80): 92 % of control
T/C (dose: 100.0 mg/kg/injection, schedule: Q01DX001 (ip), vehicle: distilled water + Tween-80): 90 % of control
T/C (dose: 200.0 mg/kg/injection, schedule: Q01DX001 (ip), vehicle: distilled water + Tween-80): 88 % of control

C=CC[n+]1cccc2ccccc21
T/C [4]: 111 % of control

CC(=O)Nc1ccc(C(=O)C=O)cc1
T/C (dose: 6.25 mg/kg/injection, schedule: Q01DX009 (ip), vehicle: saline with Tween-80): 103 % of control
T/C [5]: 110 % of control
T/C [6]: 107 % of control
T/C [7]: 113 % of control
T/C [8]: 110 % of control
T/C [9]: 103 % of control

COc1cc(Cc2nc(Cl)cc(Cl)n2)cc(OC)c1OC
T/C [8]: 105 % of control
T/C [4]: 95 % of control
T/C [9]: 97 % of control
T/C [10]: 93 % of control
T/C [11]: 103 % of control
T/C [12]: 97 % of control

Cc1ccc(S(=O)(=O)OC2CC3CCC2C3)cc1 (centres undefined)
T/C (dose: 100.0 mg/kg/injection, schedule: Q04DX003 (ip), vehicle: acetone): 105 % of control
T/C (dose: 200.0 mg/kg/injection, schedule: Q04DX003 (ip), vehicle: acetone): 101 % of control
T/C (dose: 400.0 mg/kg/injection, schedule: Q04DX003 (ip), vehicle: acetone): 100 % of control

O=[N+]([O-])c1cccc(S(=O)(=O)SC(Cl)(Cl)Cl)c1
T/C (dose: 6.25 mg/kg/injection, schedule: Q04DX003 (ip), vehicle: saline): 102 % of control
T/C (dose: 12.5 mg/kg/injection, schedule: Q04DX003 (ip), vehicle: saline): 97 % of control
T/C (dose: 25.0 mg/kg/injection, schedule: Q04DX003 (ip), vehicle: saline): 102 % of control

FC(F)(F)C(Cl)(c1ccc(Cl)cc1)c1ccc(Cl)cc1
T/C (dose: 50.0 mg/kg/injection, schedule: Q04DX003 (sc), vehicle: olive oil, sesame oil, peanut oil): 101 % of control
T/C (dose: 100.0 mg/kg/injection, schedule: Q04DX003 (sc), vehicle: olive oil, sesame oil, peanut oil): 108 % of control
T/C (dose: 200.0 mg/kg/injection, schedule: Q04DX003 (sc), vehicle: olive oil, sesame oil, peanut oil): 97 % of control
T/C (dose: 400.0 mg/kg/injection, schedule: Q04DX003 (sc), vehicle: olive oil, sesame oil, peanut oil): 101 % of control

Clc1ccc(COC(Cn2ccnc2)c2ccc(Cl)cc2Cl)c(Cl)c1 (centres undefined)
T/C [4]: 91 % of control
T/C [10]: 93 % of control

O=C(O)C1C2C=CC(C2)C1C(=O)O (centres undefined)
T/C [4]: 97 % of control
T/C [10]: 92 % of control
T/C [12]: 98 % of control

CCOC(CNc1ccc([N+](=O)[O-])cc1)OCC
T/C [13]: 95 % of control and 100 % of control
T/C [8]: 100 % of control and 106 % of control
T/C [1]: 100 % of control
T/C [4]: 94 % of control
T/C [14]: 92 % of control and 97 % of control
T/C [9]: 100 % of control and 102 % of control
T/C [2]: 98 % of control
T/C [10]: 104 % of control
T/C (dose: 400.0 mg/kg/injection, schedule: Q01DX001 (ip), vehicle: saline with Tween-80): 101 % of control and 103 % of control
T/C [11]: 120 % of control and 111 % of control
T/C [3]: 100 % of control
T/C [12]: 96 % of control

Cc1ccc([N+](=O)[O-])cc1NC(=O)C(Cl)(Cl)Cl
T/C [4]: 93 % of control
T/C [10]: 93 % of control
T/C [12]: 107 % of control

O=C(NO)c1cccnc1
T/C (dose: 270.0 mg/kg/injection, schedule: Q01DX009 (ip), vehicle: other): 121 % of control
T/C (dose: 400.0 mg/kg/injection, schedule: Q01DX001 (ip), vehicle: other): 98 % of control
T/C (dose: 600.0 mg/kg/injection, schedule: Q01DX001 (ip), vehicle: other): 101 % of control
T/C (dose: 800.0 mg/kg/injection, schedule: Q01DX001 (ip), vehicle: other): 101 % of control
T/C (dose: 800.0 mg/kg/injection, schedule: Q01DX009 (ip), vehicle: other): 164 % of control

CC(C)CCCCCc1ccc(OCCOc2ccc(C(=O)Nc3ccc(S(=O)(=O)F)cc3[N+](=O)[O-])cc2)cc1
T/C (dose: 100.0 mg/kg/injection, schedule: Q01DX009 (ip), vehicle: Klucel (hydroxypropylcellulose) (HPC)): 91 % of control
T/C (dose: 200.0 mg/kg/injection, schedule: Q01DX009 (ip), vehicle: Klucel (hydroxypropylcellulose) (HPC)): 92 % of control
T/C (dose: 400.0 mg/kg/injection, schedule: Q01DX009 (ip), vehicle: Klucel (hydroxypropylcellulose) (HPC)): 87 % of control

O=C(CCC(=O)NO)NO
T/C (dose: 100.0 mg/kg/injection, schedule: Q04DX002 (ip), vehicle: saline): 101 % of control
T/C (dose: 200.0 mg/kg/injection, schedule: Q04DX002 (ip), vehicle: saline): 90 % of control

Nc1ccccc1SC1CC(=O)N(c2ccccc2Cl)C1=O (centres undefined)
T/C [4]: 93 % of control
T/C [10]: 89 % of control
T/C [12]: 89 % of control

Cc1ccc2c(ccc(/C=C/c3ccc(O)c4ncccc34)[n+]2C)c1
T/C [5]: 117 % of control
T/C [6]: 122 % of control
T/C [7]: 105 % of control
T/C (dose: 66.0 mg/kg/injection, schedule: Q04DX003 (ip), vehicle: saline with Tween-80): 119 % of control
T/C [4]: 119 % of control
T/C (dose: 150.0 mg/kg/injection, schedule: Q04DX003 (ip), vehicle: saline with Tween-80): 119 % of control

O=C(O)c1ccccc1C(=O)Nc1ccc([N+](=O)[O-])cc1
T/C [4]: 98 % of control
T/C [12]: 91 % of control

Nc1nnnn1-c1ccc(O)cc1
T/C [4]: 104 % of control
T/C [10]: 98 % of control
T/C [12]: 104 % of control

O=S1(=O)CCS(=O)(=O)C1
T/C (dose: 50.0 mg/kg/injection, schedule: Q01DX001 (ip), vehicle: saline with Tween-80): 104 % of control
T/C [13]: 98 % of control
T/C [14]: 95 % of control

CC#CC(=O)SCCNC(=O)CC
T/C [5]: 101 % of control
T/C [6]: 101 % of control
T/C [15]: 112 % of control
T/C [7]: 101 % of control
T/C [16]: 106 % of control
T/C [4]: 86 % of control

CCCCC(CC)CNCC(CC)CCCC (centres undefined)
T/C [16]: 93 % of control
T/C [4]: 91 % of control

COc1cccc(OC)c1C(c1c(OC)cccc1OC)c1c(OC)cccc1OC
T/C [8]: 98 % of control
T/C [9]: 103 % of control
T/C [11]: 102 % of control

CN(C)c1ccc(N=C(C#N)C(=O)c2ccccc2)cc1
T/C [8]: 95 % of control
T/C [9]: 97 % of control
T/C [11]: 97 % of control

O=C(O)c1cc[c]([Hg][S]c2ncnc3nc[nH]c23)cc1
T/C (dose: 5.0 mg/kg/injection, schedule: Q01DX001 (ip), vehicle: saline): 98 % of control
T/C (dose: 10.0 mg/kg/injection, schedule: Q01DX001 (ip), vehicle: saline): 98 % of control
T/C (dose: 20.0 mg/kg/injection, schedule: Q01DX001 (ip), vehicle: saline): 101 % of control
T/C [15]: 98 % of control
T/C (dose: 33.0 mg/kg/injection, schedule: Q04DX003 (ip), vehicle: saline sonified): 119 % of control
T/C (dose: 37.5 mg/kg/injection, schedule: Q01DX009 (ip), vehicle: saline sonified): 172 % of control
T/C (dose: 40.0 mg/kg/injection, schedule: Q01DX001 (ip), vehicle: saline): 98 % of control
T/C (dose: 50.0 mg/kg/injection, schedule: Q04DX003 (ip), vehicle: saline sonified): 119 % of control
T/C [16]: 104 % of control
T/C (dose: 80.0 mg/kg/injection, schedule: Q01DX001 (ip), vehicle: saline): 104 % of control
T/C (dose: 100.0 mg/kg/injection, schedule: Q01DX009 (ip), vehicle: saline sonified): 120 % of control
T/C [4]: 121 % of control and 101 % of control

O=C1C(Sc2ccc3ccccc3c2)=C(Sc2ccc3ccccc3c2)C(=O)c2ccccc21
T/C [15]: 94 % of control
T/C [16]: 94 % of control
